From publication PMC3215869 (Journal of Pharmacokinetics and Pharmacodynamics, 2011)

Columns and labels:
[1] = Pharmacokinetic model: typical-rat PK from satellite PK experiments, oral dosing; type: in vivo, rats; conditions: Sprague-Dawley, plasma
[2] = tested on: telemetered rat (transitions between SLEEP and WAKE states); type: in vivo, Male Sprague–Dawley rats

Structure (SMILES): COC(=O)C(c1ccccc1)C1CCCCN1 (centres unmarked) [methylphenidate, Methylphenidate]
- Cmax ([1]; 3 mg): 44 nM
- Tmax ([1]; 3 mg): 12 s
- Cmax ([1]; 10 mg): 146 nM
- Tmax ([1]; 10 mg): 12 s
- Cmax ([1]; 30 mg): 438 nM
- Tmax ([1]; 30 mg): 12 s
- EC50 ([2]; Rattus norvegicus, intensity v (SLEEP to WAKE, clearance of sleep), plasma concentration, mean (95% confidence limits)): 288 nM
- Teq,drug (equilibrium half-life plasma to effect compartment) ([2]; delay on intensity u (acquisition of sleep), mean (95% confidence limits)): 24 (17, 40) min
- overall effect on sleep/wakefulness compared to placebo ([2]; rats, Figs. 4 and 6): tend to promote wakefulness
- relative potency in inducing sleep fragmentation, methylphenidate versus NCE ([2]; rats, from estimated maximum effects): fivefold more potent
- effect on the transitions between sleep states (intensities) ([2]; rats, sign of Emax values, Fig. 2): inhibit the transitions from one sleep status to another
